ChEMBL document CHEMBL1139964, “Biopartitioning micellar chromatography to predict mutagenicity of aromatic amines” (Eur J Med Chem, 2007)
Values after ≈ are worked out from the molar mass of the structure shown.

Legend:
[1] = Partition coefficient, log P of the compound; format: physicochemical; details: octanol/water
[2] = Solubility in water; format: physicochemical; details: buffer

SMILES	logP [1]	Solubility [2]
Nc1c(Br)cc([N+](=O)[O-])cc1[N+](=O)[O-]	2.73	
Cc1cc(-c2ccc(N)c(C)c2)ccc1N [ORTHOTOLIDINE]		1.3 10^3g/L
Nc1cccc2cc3ccccc3cc12		2.59 g/L (≈ 13.4 mM)
Nc1ccc2c3c(cccc13)-c1ccccc1-2		0.715 g/L (≈ 3.29 mM)
Nc1ccc2ccc3cccc4ccc1c2c34 [AMINOPYRENE]	4.99	0.576 g/L (≈ 2.65 mM)
Nc1ccc(Br)cc1 [4-BROMOANILINE]		707 g/L (≈ 4110 mM)
Nc1ccc2cc3ccccc3cc2c1 [2-AMINOANTHRACENE]	2.62	1.3 g/L (≈ 6.73 mM)
Nc1ccc(Cc2ccc(N)cc2)cc1		1 10^3g/L
Nc1ccc2c(c1)Cc1ccccc1-2		8.78 g/L (≈ 48.4 mM)
